Measurements published in patent US9549958B2, “Extracts of Cynanchum sp. and active ingredients contained therein in use of arthritis treatment” (INDUSTRIAL TECHNOLOGY RESEARCH INSTITUTE, priority 2011, dated 2017).
≈ marks a conversion by molar mass, not a printed value.

Columns and labels:
[1] = Weight changes in collagen-induced arthritis model; assay type: in vivo, rat; conditions: various doses of antofine and regimes (Groups 1-4), i.p., rats
Description: (§1) 50 μg of a fetus bovine type II collagen (CII, Chondrex) was emulsified in a complete Freund's adjuvant (CFA, Sigma). The ankle volume was measured as the basis of a hindpaw volume. On the eighth day after the primary immune, each rat was injected with 100 μg of the collagen emulsified in IFA (Sigma) to induce arthritis. The carrier control group was i.p. injected with 2 ml/kg of 0.5% CMC rats every two days until day 21. The experimental group was […] antofine isolated from Example 1 according to the following regimes: Group 1 was i.p. injected with 3 mg/kg of antofine every two days until Day 20 and then i.p. injected with 3 mg/kg of antofine per day on Day 21˜23; Group 2 was i.p. injected with 3 mg/kg of antofine every three days until Day 20 and then i.p. injected with 3 mg/kg of antofine per day on Day 21˜23; Group 3 was i.p. injected with 2 mg/kg of antofine every two days until Day 20 and then i.p. injected with 3 mg/kg of antofine per day on Day 21˜23; Group 4 was i.p. injected with 3 mg/kg of antofine per day for 5 days, and then stop administration on the next nine days, and i.p. injected with 3 mg/kg of antofine per day on Day 21˜23.; and All rats were scarified on Day 24.

TNF-α = TNF-α inhibition in LPS-stimulated activated U937 cells (ELISA); assay type: cell-based; conditions: Homo sapiens, U-937, Example 3
Description: A human myeloid leukemia cell line U937 (Rockville, Md.) was obtained from ATCC. The cell line was cultured in a RPMI 1640 medium with a 10% fetal calf serum (FCS) at 37° C., 5% CO2. The cell line maintained in exponential growth. For inducing differentiation, the cells with a starting concentration of 4×10^5 cell/ml were cultured in T150 containing 50 ng/ml PMA (Sigma) for 24 hours. Subsequently, the cells were moved to a fresh medium without PMA and cultured for 48 hours. The cells were collected with rubber policeman (Bellco Glass, Vineland, N.J.) gently scraping the medium bottle for the next step.
The activated U937 cells were seeded into a 96-well plate to form a concentration of 1.6×10^5 cell/well. The ethanol extracts of Cynanchum hancockianum in different concentrations were respectively added 10 μl to the 96-well plate. The final volume of each well was 190 μl. The plate was cultured at 37° C., 5% CO2 for 30 min. Then each well was added 2 μg/ml of lipopolysaccharide (LPS) in PBS 10 μl and cultured at 37° C. for 4 hours. […] The amount of TNF-α was analyzed by an ELISA (TNF-α duoset, R&D, Minneapolis, Minn.). […]
The activated U937 cells obtained from Example 2 were seeded into a 96-well plate to form a concentration of 1.6×10^5 cell/well. […] The amount of TNF-α was analyzed by an ELISA and cell viability was tested by MTT. […]

[2] = tested on: collagen-induced arthritis model; assay: Collagen-induced arthritis model, morbidity and onset; assay type: in vivo, rat
Description: as §1

Q: Which Weight changes [1] does the source give for `COc1ccc2c3c(c4cc(OC)c(OC)cc4c2c1)C[C@H]1CCCN1C3` [antofine, (−)-antofine] here?
A: The Weight changes was “not greatly changed”.

Q: And the IC50 (TNF-α)?
A: Its IC50 is 7 ng/mL (≈ 0.0193 µM).

Q: What about the “Morbidities and onset of arthritis” value ([2]; Group 1: 3 mg/kg i.p. every two days until Day 20, then 3 mg/kg per day on Day 21-23) of the same molecule?
A: The value was “decreased morbidities and delayed onsets”.

Q: What about the “Morbidities and onset of arthritis” value ([2]; Group 4: 3 mg/kg i.p. per day for 5 days, stop nine days, 3 mg/kg per day on Day 21-23) of the same molecule?
A: Its value is “decreased morbidities and delayed onsets”.
